Marks after values point to notes of the source that are not given here. One block for each molecule: values may come before it.
What was measured:
[1] = system: dopamine, noradrenaline and serotonine reuptake; test: In vitro pharmacology, summary in words over binding and reuptake inhibition
Description: (§1) In vitro affinity for neurotransmitter reuptake sites were either obtained by CEREP (128, rue Danton, 92500 Rueil-Malmaison, France) or at Solvay Pharmaceuticals B. V. (C. J. van Houtenlaan 36, 1381 CP Weesp, The Netherlands), using well documented procedures. Measured were affinities for serotonin (Tatsumi, 1999), norepinephrine (Pacholczyk, 1991) and dopamine reuptake sites (Pristupa, 1994).
(§2) Subsequently, the synaptosomes were exposed to [^3H]-serotonin ([…] final concentration) for 10 min. [^3H]-Serotonine uptake was stopped by filtration with a harvester and the non-incorporated radioactivity was removed by extensive washing. Filter plates with synaptosomes were dehydrated, and the amount of [^3H]-serotonin present was determined by Betaplate liquid scintillation counting.
In vitro functional inhibition of [^3H]-norepinephrine reuptake: male rats (Wistar Hsd/Cpb: WU; 175-200 g) were decapitated, the hypothalamus was rapidly removed and a crude synaptosomal fraction was prepared. […] [^3H]-Norepinephrine uptake was stopped by filtration with a harvester and the non-incorporated radioactivity was removed by an extensive washing programme. The filterplates with synaptosomes were dehydrated and the amount of [^3H]-norepinephrine present was determined by Betaplate liquid scintillation counting. […]

in vivo = details: for AUC0→∞: Tend = ∞
Description: Proteins in 100 μl plasma were precipitated with acetonitrile, and 5 μl samples of the obtained solutions were analyzed. Complete brains were homogenized and centrifuged, and 10 μl samples of the supernatant were analyzed.
Liquid Chromatography-Tandem Mass Spectrometry (LC-MS/MS) was performed using a Sciex API4000 LC-MS/MS. Samples were quantified using extracted calibration samples, treated the same as the study samples, in the range of 1-5000 ng/ml and 5.0-5000 ng/brain for plasma and brain samples, respectively. Compound peak area was used for quantification. Calibration curves were fitted to the model y=A+Bx+Cx^2 (y is the peak area of the analyte, x is the nominal calibration level in ng/ml (plasma) or ng/g (brain), A is the intercept, B is the slope and C is the description of the curvature). 1/x^2 weighing was used. LC-MS/MS system performance was monitored using a reference solution injected at standard intervals. […] The Lower Limit Of Quantification (LLOQ) was established at 1.00 ng/ml and 5.00 ng/brain, for plasma and brain samples, respectively. Values below the LLOQ were given as best estimate. Reversed phase HPLC was performed using gradient elution by a Hypersil BDS C18 100×4.6 mm 3 μm analytical column, at 45° C. and with a flow of 1.00 ml/min: […]

[2] = Reduction of venlafaxine N-oxide in the human colon model TIM2; type: in vitro ADME; details: within 2 hours after dosing
Description: The human colon model TIM2 (TNO Intestinal Model 2): this model is a dynamic model for the human large intestine that simulates in vivo conditions. It is an artificial digestive system that has been validated by many studies (Minekus, 1999).
Suspended in 1% methylcellulose, venlafaxine-N-oxide (1 mg) was inserted into the lumen (120 ml) of the TIM2 model (see above, Minekus, 1999). Samples from the lumen and the dialysate (the latter being a model for the vascular bed of the intestines) were taken at various time intervals, and analyzed for venlafaxine-N-oxide and venlafaxine.

dopamine reuptake sites = dopamine reuptake sites (Homo sapiens, UniProt Q01959); test: In vitro affinity for dopamine reuptake sites; type: binding; details: for Ki: read-out: Dopamine binding pKi (converted)
Sequence of dopamine reuptake sites (Q01959 whole entry): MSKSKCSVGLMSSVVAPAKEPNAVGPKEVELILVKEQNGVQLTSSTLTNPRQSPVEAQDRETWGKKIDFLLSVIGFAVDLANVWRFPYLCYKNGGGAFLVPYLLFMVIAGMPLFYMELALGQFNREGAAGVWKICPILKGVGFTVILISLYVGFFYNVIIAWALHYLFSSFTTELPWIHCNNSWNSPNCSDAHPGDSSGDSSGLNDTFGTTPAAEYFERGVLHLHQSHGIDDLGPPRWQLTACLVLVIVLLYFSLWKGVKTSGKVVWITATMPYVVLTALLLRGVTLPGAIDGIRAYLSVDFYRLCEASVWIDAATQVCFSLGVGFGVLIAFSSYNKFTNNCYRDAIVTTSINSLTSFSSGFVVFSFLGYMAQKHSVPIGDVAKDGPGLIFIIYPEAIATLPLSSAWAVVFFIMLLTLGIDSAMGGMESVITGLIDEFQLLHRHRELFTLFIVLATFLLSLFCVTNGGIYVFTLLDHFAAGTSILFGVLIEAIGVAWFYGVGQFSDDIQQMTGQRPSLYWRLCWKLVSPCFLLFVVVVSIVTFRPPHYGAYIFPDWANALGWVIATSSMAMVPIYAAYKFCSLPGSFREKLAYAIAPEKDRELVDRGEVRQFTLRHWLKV
Source text: as §1

[3H]-dopamine reuptake = molecular target: T1, [3H]-dopamine reuptake (Rattus norvegicus, UniProt P23977); test: In vitro functional inhibition of [3H]-dopamine reuptake, striatum synaptosomes; type: biochemical; details: for IC50: read-out: Dopamine inhibition pIC50 (converted)
T1 construct: the striatum was rapidly removed and a crude synaptosomal fraction (P2) was prepared; from tissue; host or cells: rat striatum, crude P2 synaptosomal fraction
T1 sequence (P23977 whole entry): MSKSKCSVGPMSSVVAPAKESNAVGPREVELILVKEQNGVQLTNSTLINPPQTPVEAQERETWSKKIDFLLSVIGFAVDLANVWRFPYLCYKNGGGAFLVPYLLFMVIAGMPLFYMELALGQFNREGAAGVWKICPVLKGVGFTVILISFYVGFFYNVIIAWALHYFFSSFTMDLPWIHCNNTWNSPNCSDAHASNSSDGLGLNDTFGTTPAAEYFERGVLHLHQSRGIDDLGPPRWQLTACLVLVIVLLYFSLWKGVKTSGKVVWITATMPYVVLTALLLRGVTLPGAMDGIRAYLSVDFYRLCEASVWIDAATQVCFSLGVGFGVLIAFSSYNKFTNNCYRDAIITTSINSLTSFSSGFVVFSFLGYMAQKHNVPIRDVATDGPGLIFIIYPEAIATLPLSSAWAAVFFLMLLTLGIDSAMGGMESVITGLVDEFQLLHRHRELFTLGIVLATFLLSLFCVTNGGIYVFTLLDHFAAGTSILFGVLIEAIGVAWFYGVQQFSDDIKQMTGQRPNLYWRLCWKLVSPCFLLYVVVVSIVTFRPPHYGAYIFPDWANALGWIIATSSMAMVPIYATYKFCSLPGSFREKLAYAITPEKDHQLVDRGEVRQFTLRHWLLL
Description: In vitro functional inhibition of [^3H]-dopamine reuptake: male rats (Wistar Hsd/Cpb: WU; 175-200 g) were decapitated; the striatum was rapidly removed and a crude synaptosomal fraction (P2) was prepared by homogenization and centrifugation. Synaptosomes were pre-incubated in absence or presence of the test compound for 15 min at 37° C., in a medium containing the monoamine oxidase inhibitor pargyline (7×10^−6 M) (Coyle, 1969). Subsequently, [^3H]-dopamine (2×10^−7 M final concentration) was added and incubation was continued for 10 min. [^3H]-dopamine uptake was stopped by filtration and the synaptosomes were washed four times with phosphate buffered saline. The amount of [^3H]-dopamine in the synaptosomes was determined by Betaplate liquid scintillation counting. […] Inhibition of DA uptake was performed in duplicate.

[3] = molecular target: norepinephrine reuptake sites (Homo sapiens, UniProt P23975); test: In vitro affinity for norepinephrine reuptake sites; type: binding; details: for Ki: read-out: Noradrenaline binding pKi (converted)
Sequence of norepinephrine reuptake sites (P23975 whole entry): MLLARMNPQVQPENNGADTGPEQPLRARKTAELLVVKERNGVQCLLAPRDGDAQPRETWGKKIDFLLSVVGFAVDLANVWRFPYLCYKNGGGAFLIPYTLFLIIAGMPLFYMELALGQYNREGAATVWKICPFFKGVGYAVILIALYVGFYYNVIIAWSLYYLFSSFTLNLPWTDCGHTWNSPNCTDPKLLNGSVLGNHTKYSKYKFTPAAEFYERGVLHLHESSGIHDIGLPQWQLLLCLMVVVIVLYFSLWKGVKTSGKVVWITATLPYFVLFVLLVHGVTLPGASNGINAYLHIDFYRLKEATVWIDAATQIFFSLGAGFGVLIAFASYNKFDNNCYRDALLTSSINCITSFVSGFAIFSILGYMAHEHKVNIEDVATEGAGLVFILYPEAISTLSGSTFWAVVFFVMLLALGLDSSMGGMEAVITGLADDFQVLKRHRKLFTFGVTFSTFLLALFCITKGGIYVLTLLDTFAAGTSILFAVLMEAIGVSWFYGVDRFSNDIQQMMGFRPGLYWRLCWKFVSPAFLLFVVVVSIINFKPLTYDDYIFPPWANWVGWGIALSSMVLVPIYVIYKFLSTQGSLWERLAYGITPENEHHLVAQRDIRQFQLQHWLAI

[4] = molecular target: T2, [3H]-norepinephrine reuptake (Rattus norvegicus, UniProt Q63380); test: In vitro functional inhibition of [3H]-norepinephrine reuptake, hypothalamus synaptosomes; type: biochemical; details: for IC50: read-out: Noradrenaline inhibition pIC50 (converted)
T2 construct: the hypothalamus was rapidly removed and a crude synaptosomal fraction was prepared; from tissue; host or cells: rat hypothalamus, crude synaptosomal fraction
T2 sequence (Q63380 1-617): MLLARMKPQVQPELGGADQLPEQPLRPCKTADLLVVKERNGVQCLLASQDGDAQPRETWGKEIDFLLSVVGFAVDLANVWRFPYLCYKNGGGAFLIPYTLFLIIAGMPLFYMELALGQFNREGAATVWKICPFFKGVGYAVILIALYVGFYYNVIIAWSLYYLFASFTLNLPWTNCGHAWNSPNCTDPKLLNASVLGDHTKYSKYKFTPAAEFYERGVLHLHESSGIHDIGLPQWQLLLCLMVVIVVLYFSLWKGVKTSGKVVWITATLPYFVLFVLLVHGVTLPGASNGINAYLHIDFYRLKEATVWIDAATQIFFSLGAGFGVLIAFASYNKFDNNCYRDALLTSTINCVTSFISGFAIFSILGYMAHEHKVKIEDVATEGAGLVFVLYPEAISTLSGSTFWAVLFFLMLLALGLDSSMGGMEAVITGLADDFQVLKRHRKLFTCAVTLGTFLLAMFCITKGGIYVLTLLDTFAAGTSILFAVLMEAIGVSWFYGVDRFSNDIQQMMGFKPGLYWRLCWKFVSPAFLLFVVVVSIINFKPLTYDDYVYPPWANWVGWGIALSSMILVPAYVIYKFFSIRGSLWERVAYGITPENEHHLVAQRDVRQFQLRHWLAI
Description: In vitro functional inhibition of [^3H]-norepinephrine reuptake: male rats (Wistar Hsd/Cpb: WU; 175-200 g) were decapitated, the hypothalamus was rapidly removed and a crude synaptosomal fraction was prepared. Synaptosomes were pre-incubated in absence or presence of the test compound for 10 min at 37° C., in a medium containing the MAO inhibitor pargyline (7 μM). Subsequently, the synaptosomes were exposed to [^3H]-norepinephrine ([…] final concentration) for 15 min. [^3H]-Norepinephrine uptake was stopped by filtration with a harvester and the non-incorporated radioactivity was removed by an extensive washing programme. The filterplates with synaptosomes were dehydrated and the amount of [^3H]-norepinephrine present was determined by Betaplate liquid scintillation counting. […] Test compounds, 10^−2 M dissolved in DMSO, were diluted in Krebs Ringer buffer to test concentrations of 10^−8-10^−5 M. Further experimental details were as described (Coyle, 1969).

serotonin reuptake sites = serotonin reuptake sites (Homo sapiens, UniProt P31645); test: In vitro affinity for serotonin reuptake sites; type: binding; details: for Ki: read-out: Serotonine binding pKi (converted)
Sequence of serotonin reuptake sites (P31645 whole entry): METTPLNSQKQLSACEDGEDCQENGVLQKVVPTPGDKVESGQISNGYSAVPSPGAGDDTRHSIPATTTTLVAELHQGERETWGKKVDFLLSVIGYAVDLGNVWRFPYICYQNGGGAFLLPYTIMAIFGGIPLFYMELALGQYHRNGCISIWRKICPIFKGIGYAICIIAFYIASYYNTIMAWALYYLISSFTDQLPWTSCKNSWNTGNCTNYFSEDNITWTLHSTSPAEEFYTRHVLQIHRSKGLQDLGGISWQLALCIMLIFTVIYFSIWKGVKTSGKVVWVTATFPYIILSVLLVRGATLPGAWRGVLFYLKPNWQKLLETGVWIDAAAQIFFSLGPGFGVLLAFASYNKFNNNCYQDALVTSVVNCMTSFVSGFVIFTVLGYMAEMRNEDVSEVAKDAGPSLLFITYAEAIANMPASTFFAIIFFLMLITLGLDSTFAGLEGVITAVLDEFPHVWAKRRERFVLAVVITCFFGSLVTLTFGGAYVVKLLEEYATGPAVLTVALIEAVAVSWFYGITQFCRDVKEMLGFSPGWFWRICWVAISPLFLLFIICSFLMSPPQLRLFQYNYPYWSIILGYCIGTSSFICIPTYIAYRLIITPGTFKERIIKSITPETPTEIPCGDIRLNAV

[3H]-serotonin reuptake = molecular target: T3, [3H]-serotonin reuptake (Rattus norvegicus, UniProt P31652); test: In vitro functional inhibition of [3H]-serotonin reuptake, cerebral hemisphere synaptosomes; type: biochemical; details: for IC50: read-out: Serotonine inhibition pIC50 (converted)
T3 construct: the cerebral hemispheres were rapidly removed, and a P2-synaptosomal fraction was prepared; from tissue; host or cells: rat cerebral hemispheres, P2 synaptosomal fraction
T3 sequence (P31652 whole entry): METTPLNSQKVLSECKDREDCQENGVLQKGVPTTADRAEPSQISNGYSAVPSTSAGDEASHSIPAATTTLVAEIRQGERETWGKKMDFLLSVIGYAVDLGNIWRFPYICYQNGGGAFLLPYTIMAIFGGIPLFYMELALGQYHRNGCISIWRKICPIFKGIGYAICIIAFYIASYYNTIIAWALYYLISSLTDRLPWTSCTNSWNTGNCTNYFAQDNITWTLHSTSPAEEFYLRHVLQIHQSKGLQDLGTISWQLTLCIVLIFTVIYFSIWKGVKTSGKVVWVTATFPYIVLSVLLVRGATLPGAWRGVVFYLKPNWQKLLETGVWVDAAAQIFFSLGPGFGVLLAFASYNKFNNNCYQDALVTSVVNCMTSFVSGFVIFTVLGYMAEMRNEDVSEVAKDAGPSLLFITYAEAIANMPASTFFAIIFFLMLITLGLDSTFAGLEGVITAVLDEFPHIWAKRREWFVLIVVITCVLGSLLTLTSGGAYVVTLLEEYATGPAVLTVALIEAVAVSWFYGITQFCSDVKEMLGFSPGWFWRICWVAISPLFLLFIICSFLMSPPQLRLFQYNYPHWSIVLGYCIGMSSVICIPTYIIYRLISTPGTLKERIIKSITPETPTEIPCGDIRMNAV
Description: as §2

[5] = male, NMRI, mouse, in vivo, iv, 1 mg/kg
[6] = male, NMRI, mouse, in vivo, po, 10 mg/kg
[7] = male, NMRI, mouse, plasma, iv, 1 mg/kg
[8] = male, NMRI, mouse, plasma, po, 10 mg/kg
[9] = mice, labelled compound given 1.0 mg/kg i.v., 0.5 h
[10] = mice, labelled compound given 1.0 mg/kg i.v., 1 h
[11] = mice, labelled compound given 1.0 mg/kg i.v., 3 h
[12] = mice, labelled compound given 1.0 mg/kg i.v., 7 h
[13] = mice, labelled compound given 1.0 mg/kg i.v., 24 h
[14] = mice, labelled compound given 10 mg/kg p.o., 0.5 h
[15] = mice, labelled compound given 10 mg/kg p.o., 1 h
[16] = mice, labelled compound given 10 mg/kg p.o., 3 h
[17] = mice, labelled compound given 10 mg/kg p.o., 7 h
[18] = mice, labelled compound given 10 mg/kg p.o., 24 h

SMILES: CN(C)CC(c1ccc(O)cc1)C1(O)CCCCC1 (racemic) [O-desmethylvenlafaxine, (R,S)-1-[2-(dimethylamino)-1-(4-hydroxyphenyl)ethyl]-cyclohexanol]
In vitro activity, in words [1]: equipotent with venlafaxine

SMILES: COc1ccc(C(CN(C)C)C2(O)CCCCC2)cc1 (racemic) [Venlafaxine, (R,S)-1-(2-(Dimethylamino)-1-(4-methoxyphenyl)ethyl)cyclohexanol, reference compound]
Kp (in vivo; [5]): 3.1 | half-life (in vivo; [5]): 48 min | Kp (in vivo; [6]): 3.4 | half-life (in vivo; [6]): 54 min | AUC (in vivo; [7]): 194 ng·h/mL | AUC(0-inf) (in vivo; [7]): 195 ng·h/mL | Cmax (in vivo; [7]): 408 ng/mL | Tmax (in vivo; [7]): 0 min | Vd (in vivo; [7]): 6.2 L/kg | clearance (in vivo; [7]): 85.6 mL/min/kg | bioavailability (in vivo; male, NMRI, mouse, plasma, oral, 10 mg/kg): 48.7% | AUC (in vivo; [8]): 943 ng·h/mL | AUC(0-inf) (in vivo; [8]): 948 ng·h/mL | Cmax (in vivo; [8]): 630 ng/mL | Tmax (in vivo; [8]): 12 min | N-oxide found in brain (in vivo; mice, after administration of venlafaxine): only traces | In vitro activity, in words [1]: most potent as inhibitor of serotonine reuptake

SMILES: COc1ccc(C(C[N+](C)(C)[O-])C2(O)CCCCC2)cc1 (racemic) [Venlafaxine-N-oxide, (R,S)-1-[2-oxido-(dimethylamino)-1-(4-methoxyphenyl)ethyl]-cyclohexanol]
Brain/plasma ratio (in vivo; i.v. 1 mg/kg): 0.1 | bioavailability (in vivo; i.v., 10 mg/kg p.o. against 1 mg/kg i.v.): 23.3% | Conversion in vivo after administration (in vivo; mice): reduced to the parent compound | Time after which venlafaxine concentrations in plasma and brain exceed those of the N-oxide (in vivo; mice, after i.v. administration of venlafaxine-N-oxide): Approximately one hour | Factor by which venlafaxine concentrations in plasma and brain are higher than those of the N-oxide (in vivo; mice, after oral administration of venlafaxine-N-oxide): 10 to 100 | Plasma concentration of Venlafaxine (in vivo; [9]): 22 ng/mL | Plasma concentration of Venlafaxine-N-oxide (in vivo; [9]): 173 ng/mL | Plasma concentration of Venlafaxine (in vivo; [10]): 8.0 ng/mL | Plasma concentration of Venlafaxine-N-oxide (in vivo; [10]): 39 ng/mL | Plasma concentration of Venlafaxine (in vivo; [11]): 0.59 ng/mL | Plasma concentration of Venlafaxine-N-oxide (in vivo; [11]): 7.3 ng/mL | Plasma concentration of Venlafaxine (in vivo; [12]): 0 ng/mL | Plasma concentration of Venlafaxine-N-oxide (in vivo; [12]): 0.16 ng/mL | Plasma concentration of Venlafaxine (in vivo; [13]): 0 ng/mL | Plasma concentration of Venlafaxine-N-oxide (in vivo; [13]): 0 ng/mL | Plasma concentration of Venlafaxine (in vivo; [14]): 72 ng/mL | Plasma concentration of Venlafaxine-N-oxide (in vivo; [14]): 840 ng/mL | Plasma concentration of Venlafaxine (in vivo; [15]): 117 ng/mL | Plasma concentration of Venlafaxine-N-oxide (in vivo; [15]): 183 ng/mL | Plasma concentration of Venlafaxine (in vivo; [16]): 77 ng/mL | Plasma concentration of Venlafaxine-N-oxide (in vivo; [16]): 38 ng/mL | Plasma concentration of Venlafaxine (in vivo; [17]): 3.3 ng/mL | Plasma concentration of Venlafaxine-N-oxide (in vivo; [17]): 0.75 ng/mL | Plasma concentration of Venlafaxine (in vivo; [18]): 0.63 ng/mL | Plasma concentration of Venlafaxine-N-oxide (in vivo; [18]): 0.12 ng/mL | Brain penetration (in vivo; mouse, in vivo): hardly penetrates the brain | VD (in vivo; mouse, in vivo, iv, 1 mg/kg): 3 L/kg | clearance (in vivo; mouse, in vivo, iv, 1 mg/kg): 46.1 mL/min/kg | t1/2 (in vivo; plasma, i.v. 1 mg/kg): 48 min | AUC0→end (in vivo; plasma, i.v. 1 mg/kg, Tend = 7 hrs): 361.6 ng·h/mL | AUC0→∞ (in vivo; plasma, i.v. 1 mg/kg): 361.7 ng·h/mL | Cmax (C0) (in vivo; plasma, i.v. 1 mg/kg, extrapolated to T0 (time zero)): 1205.2 (C0)* ng/ml | Cmax (in vivo; plasma, p.o. 10 mg/kg): 1040.0 ng/mL | t1/2 (in vivo; plasma, p.o. 10 mg/kg): 186 min | AUC0→end (in vivo; plasma, p.o. 10 mg/kg, Tend = 24 hrs): 841.6 ng·h/mL | AUC0→∞ (in vivo; plasma, p.o. 10 mg/kg): 842.2 ng·h/mL | Reduction to venlafaxine in TIM2 [2]: nearly quantitatively reduced to venlafaxine | Dopamine binding pKi (dopamine reuptake sites): <4.5 | Dopamine inhibition pIC50 ([3H]-dopamine reuptake): 4.5 | Noradrenaline binding pKi [3]: <4.5 | Noradrenaline inhibition pIC50 [4]: 4.9 | Serotonine binding pKi (serotonin reuptake sites): 5.5 | Serotonine inhibition pIC50 ([3H]-serotonin reuptake): 4.9

SMILES: COc1ccc([C@H](C[N+](C)(C)[O-])C2(O)CCCCC2)cc1 [(R)-venlafaxine-N-oxide, R-Venlafaxine N-oxide]
Ki (dopamine reuptake sites): > 31.6 µM | IC50 ([3H]-dopamine reuptake): > 31.6 µM | Ki [3]: > 31.6 µM | IC50 [4]: 39.8 µM | Ki (serotonin reuptake sites): 7.94 µM | IC50 ([3H]-serotonin reuptake): 20 µM

SMILES: CN(C)C[C@@H](c1ccc(O)cc1)C1(O)CCCCC1 [(R)—O-desmethyl-venlafaxine, O-desmethyl-R-Venlafaxine, reference compound]
IC50 ([3H]-dopamine reuptake): 5.01 µM | IC50 [4]: 0.398 µM

SMILES: C[N+](C)([O-])C[C@@H](c1ccc(O)cc1)C1(O)CCCCC1 [(R)—O-desmethyl-venlafaxine-N-oxide, O-Desmethyl-R-venlafaxine N-oxide]
Ki (dopamine reuptake sites): > 31.6 µM | IC50 ([3H]-dopamine reuptake): > 31.6 µM | Ki [3]: > 31.6 µM | IC50 [4]: > 31.6 µM | Ki (serotonin reuptake sites): 10 µM | IC50 ([3H]-serotonin reuptake): 39.8 µM

Further lines, results first:

Ki (dopamine reuptake sites): > 31.6 µM | IC50 ([3H]-dopamine reuptake): > 31.6 µM | Ki [3]: > 31.6 µM | IC50 [4]: > 31.6 µM | Ki (serotonin reuptake sites): 6.31 µM | IC50 ([3H]-serotonin reuptake): 15.8 µM
SMILES: COc1ccc([C@@H](C[N+](C)(C)[O-])C2(O)CCCCC2)cc1 [(S)-venlafaxine-N-oxide, S-Venlafaxine N-oxide]

IC50 ([3H]-dopamine reuptake): 10 µM | IC50 [4]: 0.398 µM
SMILES: CN(C)C[C@H](c1ccc(O)cc1)C1(O)CCCCC1 [(S)—O-desmethyl-venlafaxine, O-desmethyl-S-Venlafaxine, reference compound]

Ki (dopamine reuptake sites): > 31.6 µM | IC50 ([3H]-dopamine reuptake): > 31.6 µM | Ki [3]: > 31.6 µM | IC50 [4]: > 31.6 µM | Ki (serotonin reuptake sites): 12.6 µM | IC50 ([3H]-serotonin reuptake): 25.1 µM
SMILES: C[N+](C)([O-])C[C@H](c1ccc(O)cc1)C1(O)CCCCC1 [(S)—O-desmethyl-venlafaxine-N-oxide, O-desmethyl-S-venlafaxine N-oxide]

— patent US7696383B2 (Solvay Pharmaceuticals B.V., priority 2007, dated 2010)
